Data set [1] addresses T1, Casein kinase 2 (Homo sapiens, UniProt P67870+P68400+P19784+Q8NEV1). The experiment in a line: Inhibition of CK2 (unknown origin). The class given is protein assay.
Data set [2] has as its system HL-60. The experiment in a line: Antiproliferative activity against human HL-60 cells assessed as cell viability after 48 hrs by CCK-8 assay. Conditions: HL-60, 48 h. The class given is functional, cell-based. Background: Tetrazolium dyes change colour on reduction, which living cells bring about.
In data set [3] the test system is A549. The data set is described as follows: Antiproliferative activity against human A549 cells assessed as cell viability after 48 hrs by CCK-8 assay. The class given is functional, cell-based. Conditions: A549, 48 h.
In data set [4] the test system is HepG2. The experiment in a line: Antiproliferative activity against human HepG2 cells assessed as cell viability after 48 hrs by CCK-8 assay. In kind it is functional, cell-based. Particulars: HepG2, 48 h.
Data set [5] deals with SK-OV-3. The data set is described as follows: Antiproliferative activity against human SK-OV-3 cells assessed as cell viability after 48 hrs by CCK-8 assay. The class given is functional, cell-based. Conditions: SK-OV-3, 48 h.
Data set [6] is described as follows: Cytotoxicity against human MSC assessed as cell viability after 48 hrs by CCK-8 assay. The class given is toxicity, cell-based. Particulars: mesenchymal stem cells (MSC).
Data set [7] has as its target T1, Casein kinase 2. The data set is described as follows: Binding affinity to CK2 (unknown origin) by cellular thermal shift assay. In kind it is protein assay.
Data set [8] has as its system HL-60. The experiment in a line: Induction of apoptosis in human HL-60 cells measured after 48 hrs by flow cytometry. In kind it is functional, cell-based. Particulars: DDE = dose-dependent effect. On the technique in general: Flow cytometry measures light scatter and fluorescence of single cells or particles in a stream.
Data set [9] has as its system HL-60. The data set is described as follows: Induction of apoptosis in human HL-60 cells assessed as early apoptotic cells at 1 uM measured after 48 hrs by flow cytometry relative to control. In kind it is functional.
In data set [10] the test system is HL-60. The data set is described as follows: Induction of cell cycle arrest in human HL-60 cells assessed as increase number of cells at G0/G1 phase at 0.1 to 1 uM measured after 12 to 48 hrs by flow cytometry. In kind it is functional, cell-based. Particulars: dose 0.1-1 µM, time 12-48 hrs, DDE = dose-dependent effect.
Data set [11] addresses T1, Casein kinase 2. The experiment in a line: Inhibition of CK2 in human HL-60 cells assessed as decrease in p-alpha-catenin level at 0.1 to 1 uM by Western blot analysis. The class given is cell-based. Particulars: dose 0.1-1 µM. On the technique in general: A western blot detects proteins with antibodies after separation by electrophoresis.
Data set [12] deals with T1, Casein kinase 2. The data set is described as follows: Inhibition of CK2 in human HL-60 cells assessed as decrease in p-Akt (S129) level at 0.1 to 1 uM by Western blot analysis. In kind it is cell-based. Particulars: dose 0.1-1 µM.
Data set [13] concerns the target T1, Casein kinase 2. The data set is described as follows: Inhibition of CK2 in human HL-60 cells assessed as decrease in p-p21 level at 0.1 to 1 uM by Western blot analysis. The class given is cell-based. Conditions: dose 0.1-1 µM.
The target in data set [14] is T1, Casein kinase 2. The data set is described as follows: Inhibition of CK2 in human HL-60 cells assessed as decrease in survivin level at 0.1 to 1 uM by Western blot analysis. Conditions: dose 0.1-1 µM. In kind it is cell-based.
For data set [15], the target named is T1, Casein kinase 2. The experiment in a line: Inhibition of CK2 in human HL-60 cells assessed as decrease in p-STAT3 level at 0.1 to 1 uM by Western blot analysis. In kind it is cell-based. Conditions: dose 0.1-1 µM.
In data set [16] the target is T1, Casein kinase 2. The experiment in a line: Inhibition of CK2 in human HL-60 cells assessed as increase in cleaved PARP level at 0.1 to 1 uM by Western blot analysis. The class given is cell-based. Conditions: dose 0.1-1 µM.

A word on the IC50: it is the point on the concentration scale where inhibition reaches its midpoint.

Active and inactive are the calls of the source. No cut-off for these calls is given here.

Take `O=C(Nc1nc2cc(F)ccc2s1)c1cc(=O)c2ccccc2o1`: the half-inhibitory concentration (IC50) in data set [1] was found to be 110 nM; in data set [2], 310 nM; in [3], 440 nM; in data set [4], 850 nM; in [5], 420 nM. Besides, the IC50 at 48 h in [6] is 4340 nM.
Compound `O=C(Nc1nc(-c2cccc(C(F)(F)F)c2)cs1)c1cc(=O)c2ccccc2o1` returned an IC50 in data set [1] of 5550 nM.
On to `COc1ccc2sc(NC(=O)c3cc(=O)c4ccccc4o3)nc2c1`, for which the IC50 in [1] came to 80 nM; in data set [2] it was 250 nM; in data set [3] it was 380 nM; in data set [4], 660 nM; in data set [5], 390 nM. Further, in data set [7], the result was Active. Besides, the IC50 at 48 h in [6] was determined as 6250 nM. In addition, the Activity result was “Dde” in data set [8], 80.7% in [9] and “Dde” in [10]. The inhibition entry in data set [11], in data set [12], in data set [13], in data set [14], in [15] and in [16] was “Active” each time.
As for `O=C(Nc1nnco1)c1cc(=O)c2ccccc2o1`, the IC50 in data set [1] turned out to be 6880 nM.
With `O=Cc1cnc(NC(=O)c2cc(=O)c3ccccc3o2)s1`, in data set [1], the IC50 was found to be 4980 nM.
The compound `O=C(Nc1nc2ccc(F)cc2s1)c1cc(=O)c2ccccc2o1` returned an IC50 in data set [1] of 240 nM.
In data set [1], `Cc1cnc(NC(=O)c2cc(=O)c3ccccc3o2)s1` came in with an IC50 of 7110 nM.
Turning to `Cc1nnc(NC(=O)c2cc(=O)c3ccccc3o2)o1`, the IC50 in [1] was determined as 5200 nM.
Same read-out and setting: the value for `COc1ccc(-c2csc(NC(=O)c3cc(=O)c4ccccc4o3)n2)cc1` was 590 nM; that for `O=C(O)c1cc(=O)c2ccccc2o1` [CHROMOCARB] was 5980 nM; that for `Cc1cc2nc(NC(=O)c3cc(=O)c4ccccc4o3)sc2cc1C` was 360 nM.
Take `O=C(Nc1nc(-c2ccc(OC(F)(F)F)cc2)cs1)c1cc(=O)c2ccccc2o1`: the concentration for half-maximal inhibition (IC50) amounted to 180 nM in data set [1]; 590 nM in data set [2]; 670 nM in [3]; 1040 nM in data set [4]; 490 nM in data set [5]. Besides, the IC50 at 48 h in [6] is 17700 nM.
For the compound `O=C(Nc1nc(-c2ccc(C(F)(F)F)cc2)cs1)c1cc(=O)c2ccccc2o1`, the IC50 in [1] worked out at 340 nM.
For the compound `Cc1nc(NC(=O)c2cc(=O)c3ccccc3o2)sc1C`, in [1], the IC50 is 6110 nM.
The same measure, in the same setting: the value for `O=C(Nc1nc2ccccc2s1)c1cc(=O)c2ccccc2o1` was 310 nM; that for `O=C(Nc1nc(-c2ccc(O)cc2)cs1)c1cc(=O)c2ccccc2o1` was 740 nM.
In the case of `N#Cc1cccc(-c2csc(NC(=O)c3cc(=O)c4ccccc4o3)n2)c1`, the IC50 in data set [1] came to 5090 nM.
In data set [1], `O=C(Nc1nccs1)c1cc(=O)c2ccccc2o1` registered an IC50 of 5210 nM.
Same read-out and setting: the value for `Cc1ccc2nc(NC(=O)c3cc(=O)c4ccccc4o3)sc2c1` was 370 nM.
As to `O=C(Nc1nc(-c2ccc(F)cc2)cs1)c1cc(=O)c2ccccc2o1`, the IC50 amounted to 150 nM in [1]; 420 nM in data set [2]; 520 nM in data set [3]; 950 nM in [4]; 440 nM in data set [5]. In addition, the half-inhibitory concentration (IC50) at 48 h in data set [6] is 7560 nM.
With `CNC(=O)c1cc(Oc2ccc(NC(=O)Nc3ccc(Cl)c(C(F)(F)F)c3)cc2)ccn1` [SORAFENIB], the Activity in [9] is listed as 73.2%.
As to `CC(C)c1csc(NC(=O)c2cc(=O)c3ccccc3o2)n1`, in [1], the IC50 amounted to 5340 nM.
In [1], `O=C(Nc1nc(-c2ccccc2)cs1)c1cc(=O)c2ccccc2o1` showed an IC50 of 610 nM.
Compound `COc1ccc2nc(NC(=O)c3cc(=O)c4ccccc4o3)sc2c1` gave an IC50 in [1] of 290 nM.
In turn, `CC(C)Cc1csc(NC(=O)c2cc(=O)c3ccccc3o2)n1` yielded an IC50 in data set [1] of 4350 nM.
In [1], `Cc1cccc(-c2csc(NC(=O)c3cc(=O)c4ccccc4o3)n2)c1` displayed an IC50 of 4120 nM.
On the same count and under the same terms, the value for `Cc1ccc(-c2csc(NC(=O)c3cc(=O)c4ccccc4o3)n2)cc1` was 230 nM; that for `O=C(Nc1nc2ccc(Br)cc2s1)c1cc(=O)c2ccccc2o1` was 290 nM.
Regarding `Cc1csc(NC(=O)c2cc(=O)c3ccccc3o2)n1`, the IC50 in data set [1] is 6420 nM.
Consider `O=C(Nc1nc2ccc(OC(F)(F)F)cc2s1)c1cc(=O)c2ccccc2o1`, for which the IC50 in data set [1] was determined as 160 nM.
With `O=C(Nc1ncc(Br)s1)c1cc(=O)c2ccccc2o1`, the IC50 in [1] was determined as 5440 nM.
Regarding `O=C(Nc1nc2ccc(C(F)(F)F)cc2s1)c1cc(=O)c2ccccc2o1`, in [1], the IC50 amounted to 200 nM.
`O=C(Nc1ncco1)c1cc(=O)c2ccccc2o1` showed an IC50 in [1] of 4880 nM.
For `O=C(Nc1nc2cc(Br)ccc2s1)c1cc(=O)c2ccccc2o1`, in [1], the IC50 is 250 nM.

These data come from ChEMBL document CHEMBL5126564, “Design, synthesis and biological evaluation of chromone derivatives as novel protein kinase CK2 inhibitors” (Bioorg Med Chem Lett, 2022).
